pIC50: −log10 of the molar value.
Tests used:
human KDR kinase = target: T1, human KDR kinase (Homo sapiens, UniProt P35968); test: KDR Kinase Assay (LanthaScreen TR-FRET enzymatic assay); assay type: biochemical; settings: 1.2 nM KDR, 92 μM ATP
T1 construct: purchased Carna 08-191
Procedure: Compounds were tested in a LanthaScreen™ time-resolved fluorescence energy transfer (TR-FRET) enzymatic assay from Invitrogen. The assay used human KDR kinase (Carna 08-191). Test compounds were prepared and diluted in DMSO in 3-fold serial dilutions to 50× of the final testing concentrations. The compounds were then further diluted to 5× by the kinase reaction buffer (50 mM HEPES pH 7.5, 0.0015% Brij-35). The enzymatic reaction for compound testing was performed in a white 384-well polypropylene plate (Corning 3573) with a total reaction volume of 25 μl containing 1.2 nM KDR, 3 μM peptide substrate FAM-P22 (GL Biochem 112393), and 92 μM ATP (Sigma A7699-1G). The assay started with loading RET diluted in kinase reaction buffer to wells, followed by addition of equal volume of 5× compounds for 15-min incubation at the room temperature for pre-treatment. The enzymatic reaction was initiated by addition of mixture of the substrate and ATP prepared in kinase reaction buffer. After incubation at 28° C. for one hour, 25 μl of stopper buffer (a mixture of 100 mM HEPES pH 7.5 buffer, 0.015% Brij-35, 50 mM EDTA and 0.2% of coating reagent 3 (Cliper Lifesciences)) and produce TR-FRET signals. After 30 minutes of incubation at room temperature, the plate was read in a Caliper with the following settings: Excitation 340 nm (30)/Emission1 495 nm (10)/Emission2 520 nm (25). The TR-FRET values were dimensionless numbers that were calculated as the ratio of the acceptor ([…]) signal to the donor (Terbium) signal. Percent of control was calculated as the percentage of compound-treated vs 1% DMSO vehicle-treated. The dose-response curves were generated and the IC50s were calculated by nonlinear sigmoid curve fitting using XLFit.

human RET kinase = target: T2, human RET kinase (Homo sapiens, UniProt P07949); test: RET Kinase Assay (LanthaScreen TR-FRET enzymatic assay); assay type: biochemical; settings: 7 nM RET, 23 μM ATP
T2 construct: purchased Carna 08-159
T2 sequence (P07949 29-1114): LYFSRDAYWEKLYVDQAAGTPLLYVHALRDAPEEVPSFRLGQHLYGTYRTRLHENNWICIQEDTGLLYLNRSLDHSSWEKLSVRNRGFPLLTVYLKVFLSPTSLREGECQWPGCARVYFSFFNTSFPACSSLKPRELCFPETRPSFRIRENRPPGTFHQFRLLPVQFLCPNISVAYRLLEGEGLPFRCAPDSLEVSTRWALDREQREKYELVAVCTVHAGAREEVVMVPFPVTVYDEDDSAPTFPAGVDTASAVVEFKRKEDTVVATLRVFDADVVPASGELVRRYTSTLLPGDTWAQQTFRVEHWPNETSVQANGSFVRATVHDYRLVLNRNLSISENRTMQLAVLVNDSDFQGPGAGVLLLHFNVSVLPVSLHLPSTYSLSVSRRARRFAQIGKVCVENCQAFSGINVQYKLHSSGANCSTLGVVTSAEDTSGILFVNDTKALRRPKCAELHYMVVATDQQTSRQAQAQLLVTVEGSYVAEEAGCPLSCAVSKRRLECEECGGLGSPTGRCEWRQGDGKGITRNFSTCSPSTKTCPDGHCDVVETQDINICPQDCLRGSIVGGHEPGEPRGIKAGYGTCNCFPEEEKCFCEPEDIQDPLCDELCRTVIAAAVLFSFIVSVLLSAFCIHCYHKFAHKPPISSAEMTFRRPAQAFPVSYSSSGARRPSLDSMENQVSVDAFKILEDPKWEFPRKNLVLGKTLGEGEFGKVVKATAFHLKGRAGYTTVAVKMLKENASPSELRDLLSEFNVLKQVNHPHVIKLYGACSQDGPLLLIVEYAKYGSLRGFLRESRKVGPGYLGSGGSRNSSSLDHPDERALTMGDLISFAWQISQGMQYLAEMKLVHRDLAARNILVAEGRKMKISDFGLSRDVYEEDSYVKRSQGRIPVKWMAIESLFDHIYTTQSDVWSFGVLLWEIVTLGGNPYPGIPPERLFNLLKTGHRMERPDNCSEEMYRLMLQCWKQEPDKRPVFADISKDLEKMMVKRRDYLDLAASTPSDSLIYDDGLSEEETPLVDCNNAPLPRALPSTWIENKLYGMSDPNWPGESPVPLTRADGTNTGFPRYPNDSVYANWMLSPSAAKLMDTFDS
Procedure: Compounds were tested in a LanthaScreen™ time-resolved fluorescence energy transfer (TR-FRET) enzymatic assay from Invitrogen. The assay used human RET kinase (Carna 08-159). Test compounds were prepared and diluted in DMSO in 3-fold serial dilutions to 50× of the final testing concentrations. The compounds were then further diluted to 5× by the kinase reaction buffer (50 mM HEPES pH 7.5, 0.0015% Brij-35). The enzymatic reaction for compound testing was performed in a white 384-well polypropylene plate (Corning 3573) with a total reaction volume of 25 μl containing 7 nM RET, 3 μM peptide substrate FAM-P2 (GL Biochem 112394), and 23 μM ATP (Sigma A7699-1G). The assay started with loading RET diluted in kinase reaction buffer to wells, followed by addition of equal volume of 5× compounds for 15-min incubation at the room temperature for pre-treatment. The enzymatic reaction was initiated by addition of mixture of the substrate and ATP prepared in kinase reaction buffer. After incubation at 28° C. for one hour, 25 μl of stopper buffer (a mixture of 100 mM HEPES pH 7.5 buffer, 0.015% Brij-35, 50 mM EDTA and 0.2% of coating reagent 3 (Cliper Lifesciences)) and produce TR-FRET signals. After 30 minutes of incubation at room temperature, the plate was read in a Caliper with the following settings: Excitation 340 nm (30)/Emission1 495 nm (10)/Emission2 520 nm (25). The TR-FRET values were dimensionless numbers that were calculated as the ratio of the acceptor ([…]) signal to the donor (Terbium) signal. Percent of control was calculated as the percentage of compound-treated vs 1% DMSO vehicle-treated. The dose-response curves were generated and the IC50s were calculated by nonlinear sigmoid curve fitting using XLFit.

TT cells = test: TT Cell Proliferation Assay (WST-8, 8 days); assay type: cell-based; settings: Homo sapiens, TT, 192 h, growth inhibition in TT cells, read-out: TT Cellular Activity
Procedure: Compounds disclosed herein were tested for the inhibition of RET by a cancer cell proliferation assay commonly known as MTT assay. In this assay, a complete media was prepared by adding 10% fetal bovine serum to RPMI-1640 medium (Life technology). TT cells were added to each of 88 wells of a 96 well plate at a seeding density of 6,000 cells/well/90 μL. The cells were allowed to attach to the plate by incubating at 37° C. for 24 hours. The compound was dissolved in DMSO (SIGMA). A solution of test compound was prepared in complete media by serial dilution to obtain the following concentrations: 50 μM, 15 μM, 5 μM, 1.5 μM, 0.5 μM, 0.15 μM, 0.05 μM, 0.015 μM and 0.005 μM. The test compound solution (10 μL) was added to each of 80 cell-containing wells. The final concentrations of the compound were following: 5 μM, 1.5 μM, 0.5 μM, 0.15 μM, 0.05 μM, 0.015 μM, 0.005 μM, 0.0015 μM and 0.0005 μM. The final concentration of DMSO is 0.5%. To the 8 remaining cell-containing wells, only complete media (containing 0.5% DMSO) was added to form a control group in order to measure maximal proliferation. To the remaining 8 empty wells, complete media was added to for a vehicle control group in order to measure background. The plates were incubated at 37° C. for 8 days. 10 μL WST-8 solution (DOJINDO, Cell Counting KIT-8) was added to each well. The plates were further incubated at 37° C. for 5 hours, and then read for the absorbance using a microplate reader at 450 nm. The IC50 was calculated using GraphPad Prism.

T1 sequence (P35968 20-1356): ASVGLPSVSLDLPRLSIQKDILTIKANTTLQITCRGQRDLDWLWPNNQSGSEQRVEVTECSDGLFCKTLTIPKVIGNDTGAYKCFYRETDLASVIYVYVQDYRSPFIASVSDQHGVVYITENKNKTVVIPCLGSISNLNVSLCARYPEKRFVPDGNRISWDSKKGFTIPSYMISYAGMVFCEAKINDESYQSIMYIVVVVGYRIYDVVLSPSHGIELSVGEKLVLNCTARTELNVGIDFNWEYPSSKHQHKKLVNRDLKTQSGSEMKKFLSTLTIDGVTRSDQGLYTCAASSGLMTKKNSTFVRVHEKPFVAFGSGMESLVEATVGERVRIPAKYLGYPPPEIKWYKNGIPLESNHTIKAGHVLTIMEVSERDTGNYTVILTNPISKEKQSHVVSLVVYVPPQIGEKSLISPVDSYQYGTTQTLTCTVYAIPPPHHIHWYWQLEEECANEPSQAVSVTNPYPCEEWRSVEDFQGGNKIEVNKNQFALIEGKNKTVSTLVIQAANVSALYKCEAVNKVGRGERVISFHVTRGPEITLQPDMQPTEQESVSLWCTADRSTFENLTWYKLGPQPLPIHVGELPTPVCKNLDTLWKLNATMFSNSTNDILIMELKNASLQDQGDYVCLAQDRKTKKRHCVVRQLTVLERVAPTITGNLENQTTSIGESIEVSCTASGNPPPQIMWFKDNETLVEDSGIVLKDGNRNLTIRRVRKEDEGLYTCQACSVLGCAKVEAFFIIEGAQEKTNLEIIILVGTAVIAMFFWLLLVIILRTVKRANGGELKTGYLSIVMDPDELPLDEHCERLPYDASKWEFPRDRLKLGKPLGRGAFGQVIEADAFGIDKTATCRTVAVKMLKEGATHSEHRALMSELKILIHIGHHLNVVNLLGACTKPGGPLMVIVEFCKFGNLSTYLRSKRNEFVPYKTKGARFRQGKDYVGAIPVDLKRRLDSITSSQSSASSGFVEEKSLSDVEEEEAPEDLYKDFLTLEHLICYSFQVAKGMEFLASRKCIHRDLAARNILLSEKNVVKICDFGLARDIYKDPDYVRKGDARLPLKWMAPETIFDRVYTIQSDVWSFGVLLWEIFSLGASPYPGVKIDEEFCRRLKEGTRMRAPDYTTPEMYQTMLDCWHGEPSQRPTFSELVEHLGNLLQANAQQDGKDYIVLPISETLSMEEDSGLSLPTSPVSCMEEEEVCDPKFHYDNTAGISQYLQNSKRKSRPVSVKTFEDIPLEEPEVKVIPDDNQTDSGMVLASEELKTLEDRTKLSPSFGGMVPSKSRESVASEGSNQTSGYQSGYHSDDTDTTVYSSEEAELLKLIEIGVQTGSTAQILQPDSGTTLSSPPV

## Cn1cc(-c2cc(-c3ccc(N4C[C@@H]5[C@@H](CNC(=O)OC(C)(C)C)[C@@H]5C4)nc3)c3c(C#N)cnn3c2)cn1 [Example 71, tert-butyl (((1R,5S,6s)-3-(5-(3-cyano-6-(1-methyl-1H-pyrazol-4-yl)pyrazolo[1,5-a]pyridin-4-yl)pyridin-2-yl)-3-azabicyclo[3.1.0]hexan-6-yl)methyl)carbamate]
Human KDR kinase
  pIC50: 7.30 to 8.00
Human RET kinase
  pIC50: ≥ 8.00
TT cells
  pIC50: ≥ 8.00

## CCOc1cc(-c2ccc(N3C[C@@H]4C[C@@](C)(NC(=O)c5c(C)cccc5Cl)C[C@@H]4C3)nc2)c2c(C#N)cnn2c1 [Example 63, 2-chloro-N-((3aR,5s,6aS)-2-(5-(3-cyano-6-ethoxypyrazolo[1,5-a]pyridin-4-yl)pyridin-2-yl)-5-methyloctahydrocyclopenta[c]pyrrol-5-yl)-6-methylbenzainide]
Human KDR kinase
  pIC50: 7.00 to 7.30
Human RET kinase
  pIC50: ≥ 8.00
TT cells
  pIC50: 7.30 to 8.00

## CC(C)(O)COc1cc(-c2ccc(N3C[C@@H]4C[C@@](C)(NS(=O)(=O)c5c(F)cccc5Cl)C[C@@H]4C3)nc2)c2c(C#N)cnn2c1 [Example 197, 2-chloro-N-((3aR,5s,6aS)-2-(5-(3-cyano-6-(2-hydroxy-2-methylpropoxy)pyrazolo[1,5-a]pyridin-4-yl)pyridin-2-yl)-5-methyloctahydrocyclopenta[c]pyrrol-5-yl)-6-fluorobenzenesulfonamide]
Human KDR kinase
  pIC50: 7.30 to 8.00
Human RET kinase
  pIC50: ≥ 8.00
TT cells
  pIC50: 7.30 to 8.00

## CC(C)(O)COc1cc(-c2ccc(N3C[C@@H]4[C@@H](CNS(=O)(=O)c5c(F)cccc5Cl)[C@@H]4C3)nc2)c2c(C#N)cnn2c1 [Example 184, 2-chloro-N-(((1R,5S,6r)-3-(5-(3-cyano-6-(2-hydroxy-2-methylpropoxy)pyrazolo[1,5-a]pyridin-4-yl)pyridin-2-yl)-3-azabicyclo[3.1.0]hexan-6-yl)methyl)-6-fluorobenzenesulfonamide]
Human KDR kinase
  pIC50: < 7.00
Human RET kinase
  pIC50: 7.30 to 8.00
TT cells
  pIC50: 7.00 to 7.30

## Cn1cc(-c2cc(-c3ccc(N4C[C@@H]5[C@H](CNC(=O)c6ncccc6Cl)[C@@H]5C4)nc3)c3c(C#N)cnn3c2)cn1 [Example 78, 3-chloro-N-(((1R,5S,6r)-3-(5-(3-cyano-6-(1-methyl-1H-pyrazol-4-yl)pyrazolo[1,5-a]pyridin-4-yl)pyridin-2-yl)-3-azabicyclo[3.1.0]hexan-6-yl)methyl)picolinamide]
Human KDR kinase
  pIC50: ≥ 8.00
Human RET kinase
  pIC50: ≥ 8.00
TT cells
  pIC50: ≥ 8.00

## Cn1cc(-c2cc(-c3ccc(N4C[C@@H]5[C@@H](CNC(=O)c6ncccc6C(F)(F)F)[C@@H]5C4)nc3)c3c(C#N)cnn3c2)cn1 [Example 186, N-(((1R,5S,6s)-3-(5-(3-cyano-6-(1-methyl-1H-pyrazol-4-yl)pyrazolo[1,5-a]pyridin-4-yl)pyridin-2-yl)-3-azabicyclo[3.1.0]hexan-6-yl)methyl)-3-(trifluoromethyl)picolinamide]
Human KDR kinase
  pIC50: ≥ 8.00
Human RET kinase
  pIC50: ≥ 8.00
TT cells
  pIC50: ≥ 8.00

## Cn1ccc(-c2cc(-c3ccc(N4C[C@@H]5C[C@@](C)(NC(=O)c6ncccc6F)C[C@@H]5C4)nc3)c3c(C#N)cnn3c2)n1 [Example 123, N-((3aR,5s,6aS)-2-(5-(3-cyano-6-(1-methyl-1H-pyrazol-3-yl)pyrazolo[1,5-a]pyridin-4-yl)pyridin-2-yl)-5-methyloctahydrocyclopenta[c]pyrrol-5-yl)-3-fluoropicolinamide]
Human KDR kinase
  pIC50: 7.30 to 8.00
Human RET kinase
  pIC50: ≥ 8.00
TT cells
  pIC50: ≥ 8.00

## Cn1ccc(-c2cc(-c3cnc(N4C[C@@H]5C[C@@](C)(NC(=O)c6c(F)cccc6Cl)C[C@@H]5C4)cn3)c3c(C#N)cnn3c2)n1 [Example 100, 2-chloro-N-((3aR,5s,6aS)-2-(5-(3-cyano-6-(1-methyl-1H-pyrazol-3-yl)pyrazolo[1,5-a]pyridin-4-yl)pyrazin-2-yl)-5-methyloctahydrocyclopenta[c]pyrrol-5-yl)-6-fluorobenzamide]
Human KDR kinase
  pIC50: 7.30 to 8.00
Human RET kinase
  pIC50: ≥ 8.00
TT cells
  pIC50: ≥ 8.00

## CCOc1cc(-c2ccc(N3C[C@@H]4[C@H](C3)[C@H]4NC(=O)c3ncccc3Cl)nc2)c2c(C#N)cnn2c1 [Example 38, 3-chloro-N-((1R,5S,6s)-3-(5-(3-cyano-6-ethoxypyrazolo[1,5-a]pyridin-4-yl)pyridin-2-yl)-3-azabicyclo[3.1.0]hexan-6-yl)picolinamide]
Human KDR kinase
  pIC50: < 7.00
TT cells
  pIC50: < 7.00

## CCOc1cc(-c2ccc(N3C[C@@H]4[C@H](C3)[C@@H]4NC(=O)c3ncccc3Cl)nc2)c2c(C#N)cnn2c1 [Example 43, 3-chloro-N-((1R,5S,6r)-3-(5-(3-cyano-6-ethoxypyrazolo[1,5-a]pyridin-4-yl)pyridin-2-yl)-3-azabicyclo[3.1.0]hexan-6-yl)picolinamide]
Human KDR kinase
  pIC50: < 7.00
TT cells
  pIC50: < 7.00

## CCOc1cc(-c2ccc(N3C[C@H]4C[C@H](NC(=O)c5ncccc5Cl)C[C@H]4C3)nc2)c2c(C#N)cnn2c1 [Example 49, 3-chloro-N-((3aR,5s,6aS)-2-(5-(3-cyano-6-ethoxypyrazolo[1,5-a]pyridin-4-yl)pyridin-2-yl)octahydrocyclopenta[c]pyrrol-5-yl)picolinamide]
Human KDR kinase
  pIC50: 7.30 to 8.00
TT cells
  pIC50: 7.30 to 8.00

## CCOc1cc(-c2ccc(N3C[C@@H]4[C@@H](CNC(=O)c5ncccc5Cl)[C@@H]4C3)nc2)c2c(C#N)cnn2c1 [Example 94, 3-chloro-N-(((1R,5S,6s)-3-(5-(3-cyano-6-ethoxypyrazolo[1,5-a]pyridin-4-yl)pyridin-2-yl)-3-azabicyclo[3.1.0]hexan-6-yl)methyl)picolinamide]
Human KDR kinase
  pIC50: 7.00 to 7.30
TT cells
  pIC50: 7.30 to 8.00

## CCOc1cc(-c2ccc(N3C[C@H]4C[C@@H](NC(=O)c5ncccc5Cl)C[C@H]4C3)nc2)c2c(C#N)cnn2c1 [Example 48, 3-chloro-N-((3aR,5r,6aS)-2-(5-(3-cyano-6-ethoxypyrazolo[1,5-a]pyridin-4-yl)pyridin-2-yl)octahydrocyclopenta[c]pyrrol-5-yl)picolinamide]
Human KDR kinase
  pIC50: 7.30 to 8.00
TT cells
  pIC50: ≥ 8.00

## CCOc1cc(-c2ccc(N3C[C@@H]4C[C@@](C)(NC(=O)c5ncccc5Cl)C[C@@H]4C3)nc2)c2c(C#N)cnn2c1 [Example 51, 3-chloro-N-((3aR,5s,6aS)-2-(5-(3-cyano-6-ethoxypyrazolo[1,5-a]pyridin-4-yl)pyridin-2-yl)-5-methyloctahydrocyclopenta[c]pyrrol-5-yl)picolinamide]
Human KDR kinase
  pIC50: 7.30 to 8.00
TT cells
  pIC50: 7.30 to 8.00

Source: patent US20220220128A1, “HETEROCYCLIC COMPOUNDS AS KINASE INHIBITORS, COMPOSITIONS COMPRISING THE HETEROCYCLIC COMPOUND, AND METHODS OF USE THEREOF” (JS Innopharm (Shanghai) Ltd, priority 2019, published 2022)
